From patent US7163960B2, “Treatment and prevention of inflammatory disorders” (Monsanto Technology L.L.C., priority 2002, dated 2007)
“Also recorded” adds a separate entry of the source. Marks after values point to notes of the source that are not given here.

How the values were obtained:
Type in all cases: in vivo, human
[1] = Fatty acid analysis of blood cell phospholipids and plasma lipid fractions after ingestion of test fatty acids; settings: for DHA (% of total fatty acids), Erythrocyte phospholipid / DHA (% of total fatty acids), Plasma phospholipid / DPA (% of total fatty acids), Erythrocyte phospholipid / DPA (% of total fatty acids), Plasma phospholipid / EPA (% of total fatty acids), Monocyte / EPA (% of total fatty acids), Plasma CE / EPA (% of total fatty acids), Plasma Phospholipid / EPA (% of total fatty acids), Plasma TG / EPA (% of total fatty acids), Platelet / EPA (% of total fatty acids), Red Blood: both, human, in vivo
From the text: 45 males and post-menopausal female—19–65 years of age, normolipidemic, and with a body mass index (BMI) in the range 20 to 30, were recruited. Exclusion criteria included bleeding disorders, hypertension, inflammatory disorders, active gastrointestinal diseases, chronic use of low dose aspirin, consumption of restaurant or takeaway evening meals more than twice per week, use of dietary supplements rich in n-3 or n-6 fatty acids, habitual consumption of more than 1 fish meal per month, and plasma phospholipid EPA+DHA levels>7.9% of total fatty acids (level achieved in the study group was 4.9±1.0% of total fatty acids).
(§1) Following a 3-week run-in period, subjects ingested either ALA, SDA, EPA supplied as ethyl esters in capsules. Intakes were 0.75 g/day for 3 weeks followed by 1.5 g/day for the subsequent 3 weeks.
At each visit, 36 mL of blood was taken by venepuncture after an overnight fast. Blood was aliquoted into various tubes for the following procedures.
Blood (20 mL) was added to tubes containing 4 mL 4.5% EDTA in water and 4 mL—6% dextran in normal saline, pH 7.0. Erythrocytes were allowed to sediment under gravity at 37° C. for 30 min. The leucocyte-rich plasma was layered onto LYMPHOPREP, density 1.077 (Nycomed Pharma, Oslo) and centrifuged at 110 g for 10 min to separate leucocytes from the platelets, which were removed. The gradient was further centrifuged at 200 g for 20 min to separate the neutrophils from mononuclear cells, which were removed.
Samples were processed for fatty acid analysis as described in Mantzioris et al., Am. J. Clin. Nutr., 72:42–8 (2000). Plasma, washed platelet and mononuclear cell pellets were stored at −80° C. Erythrocyte pellets were treated fresh with chloroform:isopropanol (2:1) and the lipid extracts stored at 4° C. Plasma, platelet and mononuclear cell pellets were extracted with chloroform:methanol. The cellular and plasma lipid extracts were fractionated by thin-layer chromatography. For the cellular extracts, the phospholipid fraction was retained and for the plasma extracts, the phospholipid, cholesterol ester, and triglyceride fractions were retained. These were transesterified by methanolysis (1% H2SO4 in methanol at 70° C. for 3 h). Fatty acid methyl esters were separated and quantified with a HEWLETT-PACKARD 6890 gas chromatograph equipped with a 50 m capillary column coated with BPX-70 (0.25 μm film thickness; SGE Pty Ltd, Victoria, Australia) (see Mantzioris et al., supra). Fatty acid standards were obtained from NuChek Prep Inc. (Elysian, Minn.) and included stearidonic acid obtained from Sigma Aldrich Pty Ltd. (Castle Hill, NSW, Australia). All organic solvents contained butylated hydroxy anisole (0.005%) as an antioxidant.

IL-1β = IL-1β synthesis in LPS-treated whole blood; settings: mean ± SD
Protocol: as §1
(§2) Blood (4 mL) was added to heparinised tubes, bacterial lipopolysaccharide (LPS) was added (200 ng/mL), and the mixture was incubated at 37° C., 5% CO2, for 24 h. Plasma was collected and assayed for prostaglandin E2 (PGE2) by radioimmunoassay (RIA), interleukin-1β (IL-1β) and tumor necrosis factor-α (TNF-α) by ELISA, as described in Mantzioris et al., supra.

prostaglandin E2 (PGE2) = assay: PGE2 synthesis in LPS-stimulated whole blood; settings: for PGE2 synthesis in LPS-stimulated whole blood: mean ± SD
Protocol: as §1, §2

TNF-α = TNF-α synthesis in LPS-treated whole blood; settings: mean ± SD
Protocol: as §1, §2

[2] = Week 3 (after 0.75 g/day for 3 weeks)
[3] = Week 6 (after 1.5 g/day for 3 weeks)
[4] = Week −3 (start of run-in, before dosing)

With `CC/C=C\C/C=C\C/C=C\C/C=C\C/C=C\CCCC(=O)O` [EPA, eicosapentaenoic acid] the “Effect on DPA concentration in the phospholipid fractions of erythrocytes and plasma” value ([1]; 0.75 g/day) was “significantly increased”, the “Effect on EPA concentration in the phospholipid fractions of erythrocytes and plasma” value ([1]; 0.75 g/day (weeks 0 to 3)) was “significantly increased” and the “Effect on DPA concentration in the phospholipid fractions of erythrocytes and plasma” value ([1]; 1.5 g/day) was “significantly increased; also recorded: elevated”. The “Effect on EPA concentration in the phospholipid fractions of erythrocytes and plasma” value ([1]; 1.5 g/day (weeks 3 to 6)) was “significantly increased; also recorded: elevated”, the “DHA (% of total fatty acids), Erythrocyte phospholipid” value ([1]; 0 week) was 4.62 ± 0.69^b % of total fatty acids and the “DHA (% of total fatty acids), Plasma phospholipid” value ([1]; 0 weeks) was 3.75 ± 0.77^ab % of total fatty acids. For the same molecule, the “DPA (% of total fatty acids), Erythrocyte phospholipid” value ([1]; 0 weeks) was 2.81 ± 0.24^a % of total fatty acids, the “DPA (% of total fatty acids), Plasma phospholipid” value ([1]; 0 weeks) was 1.34 ± 0.22^a % of total fatty acids and the “EPA (% of total fatty acids), Monocyte” value ([1]; 0 weeks) was 0.52 (0.11)a % of total fatty acids. The “EPA (% of total fatty acids), Plasma CE” value ([1]; 0 weeks) was 1.02 (0.20)a % of total fatty acids, the “EPA (% of total fatty acids), Plasma Phospholipid” value ([1]; 0 weeks) was 1.04 (0.23)a % of total fatty acids and the “EPA (% of total fatty acids), Plasma TG” value ([1]; 0 weeks) was 0.27 (0.09)a % of total fatty acids. For the same molecule, the “EPA (% of total fatty acids), Platelet” value ([1]; 0 weeks) was 0.45 (0.09)a % of total fatty acids, the “EPA (% of total fatty acids), Red Blood” value ([1]; 0 weeks) was 0.81 (0.14)^a % of total fatty acids and the “EPA (% of total fatty acids), Monocyte” value ([1]; 3 weeks) was 1.38 (0.35)b1 % of total fatty acids. For the same molecule, the “EPA (% of total fatty acids), Plasma CE” value ([1]; 3 weeks) was 2.95 (0.74)b1 % of total fatty acids, the “EPA (% of total fatty acids), Plasma Phospholipid” value ([1]; 3 weeks) was 2.71 (0.71)b1 % of total fatty acids and the “EPA (% of total fatty acids), Plasma TG” value ([1]; 3 weeks) was 0.73 (0.20)b1 % of total fatty acids. For the same molecule, the “EPA (% of total fatty acids), Platelet” value ([1]; 3 weeks) was 1.08 (0.26)b1 % of total fatty acids, the “EPA (% of total fatty acids), Red Blood” value ([1]; 3 weeks) was 1.60 (0.31)^b1 % of total fatty acids and the “EPA (% of total fatty acids), Monocyte” value ([1]; 6 weeks) was 2.25 (0.74)c1 % of total fatty acids. The “EPA (% of total fatty acids), Plasma CE” value ([1]; 6 weeks) was 4.53 (1.31)c1 % of total fatty acids, the “EPA (% of total fatty acids), Plasma Phospholipid” value ([1]; 6 weeks) was 4.48 (1.35)c1 % of total fatty acids and the “EPA (% of total fatty acids), Plasma TG” value ([1]; 6 weeks) was 1.23 (0.47)c1 % of total fatty acids. The “EPA (% of total fatty acids), Platelet” value ([1]; 6 weeks) was 1.68 (0.43)c1 % of total fatty acids, the “EPA (% of total fatty acids), Red Blood” value ([1]; 6 weeks) was 2.56 (0.65)^c1 % of total fatty acids and the “DHA (% of total fatty acids), Erythrocyte phospholipid” value ([1]; -3 week) was 5.02 ± 0.89^a1,2 % of total fatty acids. The “DHA (% of total fatty acids), Plasma phospholipid” value ([1]; -3 weeks) was 3.97 ± 1.06^a % of total fatty acids, the “DPA (% of total fatty acids), Erythrocyte phospholipid” value ([1]; -3 weeks) was 2.92 ± 0.45^a1,2 % of total fatty acids and the “DPA (% of total fatty acids), Plasma phospholipid” value ([1]; -3 weeks) was 1.31 ± 0.29^a % of total fatty acids. For the same molecule, the “EPA (% of total fatty acids), Monocyte” value ([1]; -3 weeks) was 0.66 (0.32)^a % of total fatty acids, the “EPA (% of total fatty acids), Plasma CE” value ([1]; -3 weeks) was 1.03 (0.34)^a % of total fatty acids and the “EPA (% of total fatty acids), Plasma Phospholipid” value ([1]; -3 weeks) was 1.10 (0.40)^a % of total fatty acids. The “EPA (% of total fatty acids), Plasma TG” value ([1]; -3 weeks) was 0.31 (0.15)^a % of total fatty acids, the “EPA (% of total fatty acids), Platelet” value ([1]; -3 weeks) was 0.44 (0.12)^a % of total fatty acids and the “EPA (% of total fatty acids), Red Blood” value ([1]; -3 weeks) was 0.85 (0.16)^a % of total fatty acids. For the same molecule, the “Effect on tissue levels of DHA (FIG. 1)” value ([1]; erythrocytes and plasma phospholipids, 1.5 g/day) was “decreased”, the “Change in erythrocyte DHA” value ([1]; higher dose (1.5 g/day)) was “slight, but statistically significant decrease” and the “IL-1β synthesis in LPS-treated whole blood” value (“IL-1β synthesis” below) (IL-1β; Week 0 (baseline)) was 92.0 ± 25.4^a ng/mL. For the same molecule, the “IL-1β synthesis” value (IL-1β; [2]) was 75.3 ± 27.6^b ng/mL, the “IL-1β synthesis” value (IL-1β; [3]) was 73.5 ± 16.4^b ng/mL and the “IL-1β synthesis” value (IL-1β; [4]) was 93.1 ± 26.8^a1,b ng/mL. The “PGE2 synthesis in LPS-stimulated whole blood” value (prostaglandin E2 (PGE2); Week 0 (baseline)) was 4.21 ± 1.59 ng/mL, the “PGE2 synthesis in LPS-stimulated whole blood” value (prostaglandin E2 (PGE2); [2]) was 5.05 ± 2.16 ng/mL and the “PGE2 synthesis in LPS-stimulated whole blood” value (prostaglandin E2 (PGE2); [3]) was 4.46 ± 1.47 ng/mL. For the same molecule, the “PGE2 synthesis in LPS-stimulated whole blood” value (prostaglandin E2 (PGE2); [4]) was 3.78 ± 1.95^1,2 ng/mL, the “Effect on LPS-stimulated PGE2 synthesis” value (prostaglandin E2 (PGE2); overall, either dose) was “no effect” and the “TNF-α synthesis in LPS-treated whole blood” value (“TNF-α synthesis” for short) (TNF-α; Week 0 (baseline)) was 38.9 ± 12.5^a ng/mL. The “TNF-α synthesis” value (TNF-α; [2]) was 32.0 ± 11.8^ab ng/mL, the “TNF-α synthesis” value (TNF-α; [3]) was 27.6 ± 10.6^b ng/mL and the “TNF-α synthesis” value (TNF-α; [4]) was 36.6 ± 16.53^a1,2 ng/mL.
